{
  "source": "BindingDB's records for doi:10.1016/0024-3205(83)90740-3",
  "about": "(University of Toronto, 1983)",
  "note": "“And” between values parts separate entries of the source, which are not always exact repeats. Identical values can stand only once.",
  "data": [
    {"biological_target": "5-hydroxytryptamine receptor 2A (Rattus norvegicus, UniProt P14842)", "sequence (P14842 whole entry)": "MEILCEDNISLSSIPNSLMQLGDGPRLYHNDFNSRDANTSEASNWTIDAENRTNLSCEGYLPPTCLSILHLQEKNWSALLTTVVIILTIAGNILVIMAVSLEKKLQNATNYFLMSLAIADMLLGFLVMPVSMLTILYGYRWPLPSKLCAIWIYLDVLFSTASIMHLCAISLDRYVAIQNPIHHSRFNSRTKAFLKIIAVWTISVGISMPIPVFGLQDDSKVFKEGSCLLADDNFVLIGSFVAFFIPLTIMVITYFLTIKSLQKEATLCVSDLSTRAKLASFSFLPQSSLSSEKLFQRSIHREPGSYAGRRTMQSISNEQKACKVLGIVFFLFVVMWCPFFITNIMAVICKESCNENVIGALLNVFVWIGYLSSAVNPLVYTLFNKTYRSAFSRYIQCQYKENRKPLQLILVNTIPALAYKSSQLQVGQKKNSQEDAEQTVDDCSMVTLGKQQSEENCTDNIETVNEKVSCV", "values": [
      {"smiles": "CN(C)CCCSc1ccccc1NC(=O)/C=C/c1ccccc1", "note": "[CINANSERIN]", "Ki": "10.1 nM and 5.45 nM and 4.45 nM"},
      {"smiles": "c1ccc2nc(N3CCNCC3)ccc2c1", "note": "[2-Piperazin-1-yl-quinoline (Quipazine)]", "Ki": "575 nM and 226 nM and 100 nM"},
      {"smiles": "NCCc1c[nH]c2ccccc12", "note": "[1H-indole-3-ethanamine]", "Ki": "2930 nM and 1680 nM and 538 nM"}
    ]}
  ]
}
